Test results from EP0044212B1, “Herbicidal o-alkylsulfonyloxy- and o-alkylsulfonylamino-benzenesulfonamides” (E.I. DU PONT DE NEMOURS AND COMPANY, priority 1980, dated 1982).

Tests used:
[1] = system: Broadleaves; assay: Test C pre-emergence on Fallsington silt loam soil; type: in vivo, velvetleaf, jimsonweed, mustard, pigweed; conditions: 28 days
Source text: The high herbicidal activity of two of the compounds from within the scope of the invention is evident from the results obtained in this test. The experiment concerned pre-emergence applications on soil. The containers used were 25 cm diameter plastic pots filled with Fallsington silt loam. One set of pots was planted to weeds, the seeds of which were uniformly mixed with the top 1.2 cm layer of soil. The species selected were: johnsongrass (Sorghum halepense), barnyardgrass (Echinochloa crusgalli), crabgrass (Digitaria sanguinalis), giant foxtail (Setaria faberii), velvetleaf (Abutilon theophrasti), jimsonweed (Datura stramonium), mustard (Brassica arvensis), and pigweed (Amaranthus retroflexus). Another set of pots were planted to the following crops with from one to four species per pot: corn (planting depth 3.7 cm), cotton, soybeans, sunflower, Clinton oats, wheat, Black Valentine beans, rice, sorghum, peas, flax, and peanuts (all at 2.5 cm depth), cucumbers, cabbage, alfalfa, safflower, sugarbeets, tomato, spinach, barley, and Kentucky bluegrass (all at 1.2 cm depth). Immediately after planting, the test chemical was applied to the soil surfaces dissolved in a non-phytotoxic solvent. One pot from the weed phase and one of each of the crop species were left untreated for the purpose of comparison. […]

[2] = system: Wild Buckwheat; assay: Test D pre-/post-emergence weed control in cereals; type: in vivo, Polygonum convolvulus; conditions: Pre-Emergence; 0.015 kg/ha; 20 days
Source text: (§1) Two ten-inch in diameter plastic pans lined with polyethylene liners were filled with prepared Fallsington slit loam soil. One pan was planted with seeds of wheat (Triticum aestivum), barley (Hordeum vulgarel, wild oats (Avena fatua), downy brome (Bromus tectorum), cheatgrass (Bromus secalinus), blackgrass (Alopecurus myosuroides), annual bluegrass (Poa annual, green foxtail (Setaria viridis), quack grass (Agropyron repens), Italian ryegrass (Lolium multiflorum) and ripgut brome (Bromus rigidus). The other pan was planted with seeds of Russian thistle (Salsola kali), tansy mustard (Descuraina pinnata), smartweed (Polygonum pensylvanicum), tumble mustard (Sisymbrium altissium) kochia (Kochia scoparia), shepherd's purse (Capsella bursa-pastoris), Matricaria inodora, black nightshade (Solanum nigrum), yellow rocket (Barbarea vulgaris), wild mustard (Brassica kaber) and wild buckwheat (Polygonum convolvulus). The above two pans were treated pre-emergence. At the same time two pans in which the above plant species were growing were treated post-emergence. […]
(§2) The compounds applied were diluted with a non-phytotoxic solvent and sprayed over-the-top of the pans. […] The recorded data, presented in Table D, indicate that certain compounds from within the scope of the invention have utility for pre- and/or post-emergence weed control in cereal crops such as wheat and barley.

[3] = system: Italian Ryegrass; assay: Test D pre-/post-emergence weed control in cereals; type: in vivo, Lolium multiflorum; conditions: 20 days
Source text: (§3) Two ten-inch in diameter plastic pans lined with polyethylene liners were filled with prepared Fallsington slit loam soil. One pan was planted with seeds of wheat (Triticum aestivum), barley (Hordeum vulgarel, wild oats (Avena fatua), downy brome (Bromus tectorum), cheatgrass (Bromus secalinus), blackgrass (Alopecurus myosuroides), annual bluegrass (Poa annual, green foxtail (Setaria viridis), quack grass (Agropyron repens), Italian ryegrass (Lolium multiflorum) and ripgut brome (Bromus rigidus). The other pan was planted with seeds of Russian thistle (Salsola kali), tansy mustard (Descuraina pinnata), smartweed (Polygonum pensylvanicum), tumble mustard (Sisymbrium altissium) kochia (Kochia scoparia), shepherd's purse (Capsella bursa-pastoris), Matricaria inodora, black nightshade (Solanum nigrum), yellow rocket (Barbarea vulgaris), wild mustard (Brassica kaber) and wild buckwheat (Polygonum convolvulus). The above two pans were treated pre-emergence. At the same time two pans in which the above plant species were growing were treated post-emergence. Plant height at the time of treatment ranged from 1-15 cm depending on plant species.
(§4) The compounds applied were diluted with a non-phytotoxic solvent and sprayed over-the-top of the pans. An untreated control and a solvent alone control were included for comparison. All treatments were maintained in the greenhouse for 20 days at which time the treatments were compared to the controls and the effects visually rated. The recorded data, presented in Table D, indicate that certain compounds from within the scope of the invention have utility for pre- and/or post-emergence weed control in cereal crops such as wheat and barley.

[4] = system: Ripgut Brome; assay: Test D pre-/post-emergence weed control in cereals; type: in vivo, Bromus rigidus; conditions: 20 days
Source text: as §3, §4

[5] = system: Shepherd's Purse; assay: Test D pre-/post-emergence weed control in cereals; type: in vivo, Capsella bursa-pastoris; conditions: 20 days
Source text: as §1, §2

[6] = system: Blackgrass; assay: Test D pre-/post-emergence weed control in cereals; type: in vivo, Alopecurus myosuroides; conditions: 0.015 kg/ha, 20 days
Source text: as §1, §2

[7] = system: Kochia; assay: Test D pre-/post-emergence weed control in cereals; type: in vivo, Kochia scoparia; conditions: 20 days
Source text: as §3, §4

[8] = system: Downy Brome; assay: Test D pre-/post-emergence weed control in cereals; type: in vivo, Bromus tectorum; conditions: 20 days
Source text: as §3, §4

[9] = system: Wild Mustard; assay: Test D pre-/post-emergence weed control in cereals; type: in vivo, Brassica kaber; conditions: 20 days
Source text: as §3, §4

[10] = system: Barley; assay: Test D pre-/post-emergence weed control in cereals; type: in vivo, Hordeum vulgarel; conditions: 20 days
Source text: as §3, §4

[11] = system: Black Nightshade; assay: Test D pre-/post-emergence weed control in cereals; type: in vivo, Solanum nigrum; conditions: 0.015 kg/ha, 20 days
Source text: as §1, §2

[12] = system: Tansy Mustard; assay: Test D pre-/post-emergence weed control in cereals; type: in vivo, Descuraina pinnata; conditions: Pre-Emergence; 0.015 kg/ha; 20 days
Source text: as §1, §2

[13] = system: rice and corn; assay: Crop selectivity statement (greenhouse tests); type: in vivo; conditions: summary statement
Source text: (§5) The activity of the compounds of formula I was investigated in a number of greenhouse tests.

[14] = system: Green Foxtail; assay: Test D pre-/post-emergence weed control in cereals; type: in vivo, Setaria viridis; conditions: 20 days
Source text: as §3, §4

[15] = system: Russian Thistle; assay: Test D pre-/post-emergence weed control in cereals; type: in vivo, Salsola kali; conditions: 20 days
Source text: as §3, §4

[16] = system: Sugarbeets; assay: Test G broadleaf herbicidal properties, overall spray; type: in vivo; conditions: 0.015 kg/ha, 22 days after treatment
Experimental: (§6) Approximately 12 soybean plants were grown in a 25 cm. diameter plastic pot. In another pot of equal size the following broadleaf plant species were grown: sugarbeets, velvetleaf, Sesbania, Cassia, mustard, morningglory, alfalfa, jimsonweed, and cocklebur. The plant foliage and surrounding soil were treated with the test chemical dissolved in a non-phytotoxic solvent as an overall spray at the rate of 0.015 kg/ha, when the plants were 17 days old. Visual ratings of herbicidal effects were made 22 days after treatment utilizing the rating system described for Test A.

[17] = system: Jimsonweed; assay: as above; type: in vivo; conditions: 0.015 kg/ha, 22 days after treatment
Experimental: as §6

[18] = system: Mustard; assay: as above; type: in vivo; conditions: 0.015 kg/ha, 22 days after treatment
Experimental: as §6

[19] = system: soybeams; assay: Crop selectivity statement (greenhouse tests); type: in vivo; conditions: summary statement
Source text: as §5

`COc1cc(OC)nc(NC(=O)NS(=O)(=O)c2ccccc2OS(C)(=O)=O)n1` [Compound 1, N-[(4,6-Dimethoxypyrimidin-2-yl)aminocarbonyl]-2-hydroxybenzenesulfonamide, methanesulfonate] was tested, and the Broadleaves response rating ([1]; 0.0035 kg/ha) was 3G and the Broadleaves response rating ([1]; 0.0075 kg/ha) was 4G.
`CCCS(=O)(=O)Oc1ccccc1S(=O)(=O)NC(=O)Nc1nc(OC)cc(OC)n1` [Compound 36, N-[(4,6-dimethoxypropimidin-2-yl)aminocarbonyl]-2-hydroxybenzenesulfonamide, 1-propanesulfonate] was tested, and the “Wild Buckwheat response rating” value [2] was 3G, the “Italian Ryegrass response rating” value ([3]; Post-Emergence, 0.015 kg/ha) was 0 and the “Italian Ryegrass response rating” value ([3]; Post-Emergence, 0.06 kg/ha) was 0. For the same compound, the “Italian Ryegrass response rating” value ([3]; Pre-Emergence, 0.015 kg/ha) was 1G, the “Italian Ryegrass response rating” value ([3]; Pre-Emergence, 0.06 kg/ha) was 3G and the “Ripgut Brome response rating” value ([4]; Post-Emergence, 0.015 kg/ha) was 0. For the same compound, the “Ripgut Brome response rating” value ([4]; Post-Emergence, 0.06 kg/ha) was 2G, the “Ripgut Brome response rating” value ([4]; Pre-Emergence, 0.015 kg/ha) was 2G and the “Shepherd's Purse response rating” value ([5]; Post-Emergence, 0.06 kg/ha) was 10C. The “Shepherd's Purse response rating” value ([5]; Pre-Emergence, 0.015 kg/ha) was 7G, the Blackgrass response rating ([6]; Post-Emergence) was 2G and the Blackgrass response rating ([6]; Pre-Emergence) was 6G. For the same compound, the Kochia response rating ([7]; Post-Emergence, 0.015 kg/ha) was 0, the Kochia response rating ([7]; Post-Emergence, 0.06 kg/ha) was 0 and the Kochia response rating ([7]; Pre-Emergence, 0.015 kg/ha) was 0. The “Downy Brome response rating” value ([8]; Post-Emergence, 0.015 kg/ha) was 0, the “Downy Brome response rating” value ([8]; Post-Emergence, 0.06 kg/ha) was 3G and the “Downy Brome response rating” value ([8]; Pre-Emergence, 0.015 kg/ha) was 3G. For the same compound, the “Downy Brome response rating” value ([8]; Pre-Emergence, 0.06 kg/ha) was 6G, the “Wild Mustard response rating” value ([9]; Post-Emergence, 0.015 kg/ha) was 10C and the “Wild Mustard response rating” value ([9]; Post-Emergence, 0.06 kg/ha) was 10C. For the same compound, the “Wild Mustard response rating” value ([9]; Pre-Emergence, 0.06 kg/ha) was 10C, the Barley response rating ([10]; Post-Emergence, 0.015 kg/ha) was 0 and the Barley response rating ([10]; Post-Emergence, 0.06 kg/ha) was 0. For the same compound, the Barley response rating ([10]; Pre-Emergence, 0.015 kg/ha) was 0, the Barley response rating ([10]; Pre-Emergence, 0.06 kg/ha) was 0 and the “Black Nightshade response rating” value ([11]; Post-Emergence) was 2G. For the same compound, the “Black Nightshade response rating” value ([11]; Pre-Emergence) was 4G, the “Tansy Mustard response rating” value [12] was 2G and the “selectivity on rice and corn” value [13] was “shows selectivity on rice and corn”. For the same compound, the “Green Foxtail response rating” value ([14]; Post-Emergence, 0.015 kg/ha) was 1G, the “Green Foxtail response rating” value ([14]; Post-Emergence, 0.06 kg/ha) was 2G and the “Green Foxtail response rating” value ([14]; Pre-Emergence, 0.015 kg/ha) was 2G. The “Russian Thistle response rating” value ([15]; Post-Emergence, 0.015 kg/ha) was 0, the “Russian Thistle response rating” value ([15]; Post-Emergence, 0.06 kg/ha) was 2G and the “Russian Thistle response rating” value ([15]; Pre-Emergence, 0.015 kg/ha) was 0. For the same compound, the “Russian Thistle response rating” value ([15]; Pre-Emergence, 0.06 kg/ha) was 1G.
In the case of `CCCS(=O)(=O)Oc1ccccc1S(=O)(=O)NC(=O)Nc1nc(C)nc(OC)n1` [Compound 39, 2-hydroxy-N-[(4-methoxy-6-methyl-1,3,5-triazin-2-yl)aminocarbonyl]benzenesulfonamide, 1-propanesulfonate], the Sugarbeets response rating [16] is reported as 9G, the Jimsonweed response rating [17] is reported as 0 and the Mustard response rating [18] is reported as 10C. The selectivity on soybeams [19] was “shows selectivity on soybeams”.
